#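 Protocol summary: plate cells (96-well), add compound at 5 concentrations, incubate 48 h, interpolate endpoints linearly. TGI is the concentration that stops growth completely.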
# Key:
# Test in all cases: NCI-60 cell line screen, 48 h
# [1] = system: A549 NSCLC
# [2] = system: ACHN renal
# [3] = system: CAKI-1 renal
# [4] = system: DU-145 prostate
# [5] = system: EKVX NSCLC
# [6] = system: HCT-116 colon
# [7] = system: HOP-92 NSCLC
# [8] = system: M14 melanoma
# [9] = system: NCI-H23 lung
# [10] = system: NCI/ADR-RES ovarian
# [11] = system: OVCAR-3 ovarian
# [12] = system: OVCAR-8 ovarian
# [13] = system: PC-3 prostate
# [14] = system: SK-MEL-28 melanoma
# [15] = system: T-47D breast
# [16] = system: UACC-257 melanoma
# [17] = system: CCRF-CEM leukemia
# [18] = system: NCI-H522 lung
# [19] = system: SR leukemia
SMILES,TGI [1],TGI [2],TGI [3],TGI [4],TGI [5],TGI [6],TGI [7],TGI [8],TGI [9],TGI [10],TGI [11],TGI [12],TGI [13],TGI [14],TGI [15],TGI [16],TGI [17],TGI [18],TGI [19]
N#CCc1nc2ccccc2c(=O)[nH]1,> 100 µM,> 100 µM,> 100 µM,> 100 µM,> 100 µM,> 100 µM,> 100 µM,> 100 µM,> 100 µM,> 100 µM,> 100 µM,> 100 µM,> 100 µM,> 100 µM,> 100 µM,> 100 µM,–,–,–
Nn1c(NNC(=O)C(=O)Nc2cc(Cl)c(Cl)cc2Cl)n[nH]c1=S,> 100 µM,> 100 µM,> 100 µM,–,> 100 µM,> 100 µM,> 100 µM,> 100 µM,> 100 µM,–,> 100 µM,> 100 µM,–,> 100 µM,–,> 100 µM,> 100 µM,> 100 µM,–
CCN(CC)CCCNc1nc(=O)[nH]c(C)c1C(=O)Nc1cccc2cc3ccccc3cc12,> 100 µM,> 100 µM,> 100 µM,> 100 µM,> 100 µM,> 100 µM,> 100 µM,> 100 µM,> 100 µM,> 100 µM,> 100 µM,> 100 µM,> 100 µM,> 100 µM,> 100 µM,> 100 µM,> 100 µM,> 100 µM,–
O=C1C(Br)=CC2(C=C1Br)CCNC1=C2C(=O)c2ccccc2C1=O,> 100 µM,27.9 µM,72.4 µM,–,99.1 µM,17.6 µM,–,69.3 µM,33.7 µM,–,> 100 µM,98 µM,–,–,–,53.3 µM,19 µM,14.4 µM,–
O=C(c1cccc2ccccc12)C1(Br)S(=O)(=O)OCCOS1(=O)=O,> 100 µM,> 100 µM,> 100 µM,> 100 µM,> 100 µM,> 100 µM,–,> 100 µM,> 100 µM,> 100 µM,> 100 µM,> 100 µM,–,> 100 µM,–,> 100 µM,–,–,> 100 µM
Cc1csc(=S)n1OC(=O)NC1CCCCC1,> 100 µM,> 100 µM,> 100 µM,–,> 100 µM,96.8 µM,> 100 µM,> 100 µM,> 47.3 µM,–,> 100 µM,> 100 µM,–,> 69.7 µM,–,> 100 µM,> 28.2 µM,> 80.9 µM,47.3 µM
O=C(COc1ccc2c(=O)cc(-c3ccccc3)oc2c1)N1CCN(c2ccccc2)CC1,> 100 µM,> 100 µM,–,–,> 100 µM,> 100 µM,–,> 100 µM,> 100 µM,–,> 100 µM,> 100 µM,–,> 100 µM,–,> 100 µM,> 100 µM,93.8 µM,–
CC1=C(C(=O)O)N2C(=O)[C@@H](NC(=O)C(c3ccc(O)cc3)N3CSC(=S)N(C(C)C)C3)C2SC1 (stereo partly drawn),> 100 µM,> 100 µM,–,–,> 100 µM,> 100 µM,> 100 µM,> 100 µM,> 100 µM,–,> 100 µM,> 100 µM,–,> 100 µM,–,> 100 µM,> 100 µM,> 100 µM,–
COc1ccc(C2=Nc3ccccc3NC(=O)C2)cc1,> 100 µM,> 100 µM,> 100 µM,–,> 100 µM,42.3 µM,54 µM,> 100 µM,67 µM,–,> 100 µM,> 100 µM,–,> 100 µM,–,> 100 µM,> 100 µM,> 100 µM,> 100 µM
CC(C)[C@H]1CO[C@]2(C)[C@@H]3CN(Cc4ccccc4)C[C@@H]3C(=O)N12,> 100 µM,> 100 µM,> 100 µM,–,> 100 µM,> 100 µM,> 100 µM,> 100 µM,> 100 µM,–,> 100 µM,> 100 µM,–,> 100 µM,–,> 100 µM,> 100 µM,> 100 µM,> 100 µM
CC(=O)OCC1OC(OC2C(CSC3OC(COC(C)=O)C(OC(C)=O)C(OC(C)=O)C3OC(C)=O)OC(OC(C)=O)C(OC(C)=O)C2OC(C)=O)C(OC(C)=O)C(OC(C)=O)C1OC(C)=O (stereo not drawn),> 100 µM,> 100 µM,> 100 µM,–,> 100 µM,> 100 µM,> 100 µM,> 100 µM,> 100 µM,–,> 100 µM,> 100 µM,–,> 100 µM,–,–,> 100 µM,> 100 µM,> 100 µM
COc1cc(OC)c2c(c1)C(=O)C(CC(C)O)=CC2=O (stereo not drawn),37.1 µM,30.2 µM,34.3 µM,–,26.2 µM,25 µM,23.3 µM,32.9 µM,34.9 µM,–,18.3 µM,29.5 µM,–,31.5 µM,–,30.7 µM,33.5 µM,30.9 µM,7.44 µM
C[C@H](OCc1ccccc1)C(=O)N1CCS(=O)(=O)N2CCC[C@H]2C1=O,> 100 µM,> 100 µM,> 100 µM,–,> 100 µM,> 100 µM,> 100 µM,> 100 µM,> 100 µM,–,> 100 µM,> 100 µM,–,> 100 µM,–,> 100 µM,> 100 µM,> 100 µM,> 100 µM
